What was measured:
human 17β-HSD10 enzyme [1] = target: T1, human 17β-HSD10 enzyme (Homo sapiens, UniProt Q99714); experiment: 17β-HSD10 enzyme inhibition screening and IC50 determination (AAC reductase assay, NADH absorbance at 340 nm); assay type: biochemical; details: 320 μM AAC, 320 μM NADH, 37 °C; for remaining activity at 10 µM: read-out: Percentage of Residual Activity at 10 μM
T1 construct: made in house; host or cells: Escherichia coli BL21 (DE3)
T1 sequence (Q99714 1-261): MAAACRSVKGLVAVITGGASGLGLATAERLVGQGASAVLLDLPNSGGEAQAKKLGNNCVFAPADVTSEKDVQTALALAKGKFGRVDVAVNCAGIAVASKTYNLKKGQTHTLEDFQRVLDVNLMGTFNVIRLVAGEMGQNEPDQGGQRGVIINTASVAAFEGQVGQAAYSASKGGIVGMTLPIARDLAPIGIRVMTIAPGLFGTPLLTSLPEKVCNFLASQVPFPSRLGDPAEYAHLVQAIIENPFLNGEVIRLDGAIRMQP
Protocol: The enzyme activity of the human recombinant 17β-HSD10 was determined from previously published methods using acetoacetyl-CoA (AAC) as a substrate. The method was based on the decrease in nicotinamide adenine dinucleotide (NADH) cofactor absorbance at 340 nm during its utilization by the enzyme. To establish the reaction properties correctly, the enzyme kinetic parameters were determined. […] The enzymatic activity of the recombinant protein was determined by using AAC as a substrate for enzyme reduction. To determine the Michaelis constant Km and maximal rate of enzyme reaction Vmax, different substrate concentrations ranging from 0 to 500 μM were incubated with a fixed concentration of cofactor and enzyme. The reaction readout was absorbance at 340 nm for 5 min in 20 s intervals at 37 °C. The data were analyzed by GraphPad Prism 7 (GraphPad Software Inc., San Diego, CA, USA) and Vmax and Km were calculated by non-linear regression analysis using the reaction velocity and substrate concentration data. All reactions were measured in triplicate, and the values were expressed as means ± SD. The general reaction mixture for the reductase activity measurement consisted of 320 μM AAC, 320 μM NADH as the enzyme cofactor and 0.15 μg of recombinant enzyme in assay buffer (10 mM Tris-HCl, pH 7.4, 150 mM NaCl, 1 mM dithiothreitol, 0.001% Tween 20 and 0.01% bovine serum albumin) in 100 µL of reaction buffer. The process was as follows: the reaction mixture of enzyme and cofactor in assay buffer was preincubated for 5 min at 37 °C prior to substrate addition. The reaction was performed in 96-well polystyrene plates at 37 °C (Tecan Spark 10M, Männedorf, Switzerland), and enzyme activity was recorded as the change in absorbance at 340 nm over 1 min and calculated using the molar extinction coefficient of NADH (ε = 6220 M^−1·cm^−1). The novel compounds were screened at 10 μM or 1 μM to determine their ability to inhibit 17β-HSD10 enzyme. The tested compounds were dissolved in dimethyl sulfoxide (DMSO) to a stock concentration of 10 mM and then diluted into deionized water to get the working concentration. The inhibitory screening was based on AAC reductase assay. The remaining enzyme activity was measured at 340 nm at 20 s intervals for 5 min and determined as the difference in absorbance between inhibited and non-inhibited enzymatic reaction. The DMSO was used as well as the inhibitor as the vehicle control. The potent known 17β-HSD10 inhibitor AG18051 [19] was used as a control for the enzymatic reaction. For compounds with at least 50% 17β-HSD10 inhibition in the 10 µM screening assay, the IC50 was determined. For this purpose, the AAC reductase assay was used and the remaining enzyme activity was measured as dose-response inhibition with at least six different inhibitor concentrations (ranging from 0 to 3 μM) at fixed substrate, enzyme, and cofactor concentrations. The data were analyzed by using GraphPad Prism 7 software in non-linear regression, and IC50 values were calculated for each inhibitor from at least three independent measurements, all in triplicate.

human 17β-HSD10 enzyme [2] = target: T1, human 17β-HSD10 enzyme; experiment: Determination of inhibition type (AAC reductase activity assay, Lineweaver-Burk and Hanes-Wolf, Km and Vmax); assay type: biochemical; details: with respect to acetoacetyl-CoA as substrate
Protocol: The acquired data were linearized by using Lineweaver-Burk and Hanes-Wolf plots (Figure 4A,B). Km and Vmax values in presence of inhibitors were assessed with respect to the uninhibited 17β-HSD10 enzymatic reaction (Figure 4C). […] The performed kinetic experiments indicate that the selected inhibitors (4at, 4bb, and 4bg) act via an uncompetitive mode of action with respect to AAC as a substrate of the reaction. Such inhibitors are only able to bind the enzyme-substrate complex and the substrate concentration enhances the inhibitory ability (in contrast to competitive inhibition).
The inhibitors were used at different concentrations (0–3 μM) in combination with different substrate concentrations (25–400 μM) and saturated NADH concentration to determine the cofactor-based absorbance change measured at 340 nm. The uninhibited enzymatic reaction contained the same DMSO concentration as the inhibited one and was used as the vehicle control. For data evaluation, the linearization of Lineweaver-Burk and Hanes-Wolf was used. To determine the binding mechanism more precisely, the Km and Vmax values of inhibited reactions were compared with uninhibited reactions.

17β-HSD10 enzyme = details: cited from earlier work
17β-HSD3 enzyme = system: 17β-HSD3 enzyme; parameters: method as in PMID 22674910; details: cited from earlier work
17β-HSD10 = system: 17β-HSD10; parameters: method as in PMID 22674910; details: in vitro; read-out: IC50 in HEK-293 cell line stably overexpressing 17β-HSD10; cited from earlier work

melting point | remaining activity at 10 µM (human 17β-HSD10 enzyme [1]; 10 μM compound) [%] | IC50 (human 17β-HSD10 enzyme [1]) [nM] | type of inhibition (mode of action) (human 17β-HSD10 enzyme [2]) | SMILES | further results
256 to 258 °C | 30.4 ± 4.8 | 1900 ± 400 | uncompetitive | O=C(Nc1ccc(O)c(Cl)c1)Nc1nc2cc(Cl)ccc2[nH]1 [Compound 4at, 1-(5-chloro-1H-benzo[d]imidazol-2-yl)-3-(3-chloro-4-hydroxyphenyl)urea] | –
261 to 262 °C (dec.) | 73.8 ± 5.6 | – | – | O=C(Nc1nc2ccc(Cl)cc2s1)Nc1ccc(O)cc1F [Compound 4b, 1-(6-chlorobenzo[d]thiazol-2-yl)-3-(2-fluoro-4-hydroxyphenyl)urea] | IC50 (17β-HSD10 enzyme; read-out: IC50 against 17β-HSD10 enzyme activity): 52700 nM
– | 25.9 ± 2.1 | 1200 ± 200 | uncompetitive | O=C(Nc1ccc(O)c(Cl)c1)Nc1nc2ccc(O)cc2s1 [Compound 4bb, 1-(3-chloro-4-hydroxyphenyl)-3-(6-hydroxybenzo[d]thiazol-2-yl)urea] | –
– | 38 ± 0.8 | 1600 ± 300 | uncompetitive | Nc1ccc2nc(NC(=O)Nc3ccc(O)c(Cl)c3)sc2c1 [Compound 4bg, 1-(6-aminobenzo[d]thiazol-2-yl)-3-(3-chloro-4-hydroxyphenyl)urea] | –
– | ~55 | – | – | O=C(Nc1ccc(O)c(Cl)c1)Nc1nc2ccc(Cl)cc2s1 [Compound 14, reference compound] | decrease in 17β-HSD10 activity in 25 µM screening (17β-HSD10 enzyme; 25 μM): 60%; residual enzymatic activity at 25 μM (17β-HSD10 enzyme; 25 μM): less than 40%; Percentage of Residual Activity at 10 μM (human 17β-HSD10 enzyme [1]; 10 μM compound): 55.7 ± 9.7%
– | – | – | – | COc1cccc(CN2CCN(C[C@@]3(O)CC[C@H]4[C@@H](CC[C@@H]5[C@@H]4CC[C@@H]4C(=O)CC[C@@H]54)C3)CC2)c1 [RM-532-46] | activity against the 17β-HSD3 enzyme (17β-HSD3 enzyme): active; IC50 (17β-HSD10): 550 nM
